We go through 16 compounds from patent publication US20050208036A1, “Methods for treating or preventing GVHD” (University of North Carolina at Chapel Hill, priority 2003, published 2005).

Where “and” joins values, the source holds several entries; their conditions need not be identical. Equal values may be shown once.

The target in test [1] is NEMO (Homo sapiens, UniProt Q9Y6K9). Nature of the test: NBD mutants: ability to bind to NEMO. The format is binding.
Test [2] deals with donor CD4+ T cells from C57BL/6 mice with irradiated bm12 splenocytes. The test can be described thus: Mixed lymphocyte reaction (MLR): proliferative response of T cells to alloantigen, 3H-thymidine incorporation. The format is cell-based, mouse. The method, then: (§1) A bulk MLR was prepared by combining donor CD4^+ T cells obtained from C57BL/6 (H-2^b) mice (National Institutes of Health, Bethesda, Md., U.S.A.) in a 1:1 ratio with T cell-depleted, irradiated splenocytes obtained from bm12 (H-2^bm12), MHC class II disparate mice (The Jackson Laboratory, Bar Harbor, Me., U.S.A.). An anti-CD40L monoclonal antibody (hybridoma MR1, hamster IgG), obtained by culturing the hybridoma in 10% FBS/DMEM in an Accusyst Jr. hollow fiber bioreactor (Cellex Biosciences, Minneapolis, Minn., U.S.A.), was added to the bulk MLR culture and the cells were incubated for 7-10 days. Proliferative responses of the T cells to alloantigen were determined on days 2, 4, 5, 6, and 7 by measuring ^3H-thymidine incorporation into newly synthesized DNA. The antibody removed from the cultures by washing three times with 2% FBS/PBS, and aliquots of the cells (0.3×10^5, 10^5, and 3×10^5 cells) were administered in 0.5 mL DMEM by tail vein injection to bm12 mice subjected to a sublethal dose (6.0 Gy) of total body irradiation. Control irradiated mice received the same amounts of cells from MLR that had not been exposed to anti-CD40L. The mice were monitored for GVHD lethality, weight changes, and packed cell volume (PCV). Cells remaining from the primary MLR were mixed with fresh bm12 splenocytes for a secondary MLR, and proliferative responses to allogen were measured on days 1 through 5. Aliquots of the secondary MLR cultures were subsequently administered to irradiated bm12 mice.
An MLR culture was prepared consisting of a 1:1 ratio of CD4+ T cells obtained from C57BL/6 mice and T cell-depleted, irradiated MHC class II-disparate stimulators obtained from bm12 mice. PS1145, a potent inhibitor of IκB kinase and thus NF-κB activation, was added to the MLR culture at concentrations of 0.2 μM, 0.6 μM, 1 μM, 2 μM, 6 μM, and 10 μM. Control MLR cultures were left untreated or were treated with DMSO. […] This hyporesponsiveness persisted after washing of the T cells and re-exposure to alloantigen. As with anti-CD40L treated MLR, alloantigen hyporesponsiveness was reversed by addition of 50 U/mL exogenous IL-2 (FIG. 7).
(§2) The tolerance induced by PS1145 was specific to alloantigen, as responses to non-specific mitogens remained largely intact.
CD4^+ CD25^+ cells were required in cultures tolerized by anti-CD40L. To determine whether CD25^+ T cells, which express the high-affinity IL-2 receptor a chain (IL-2Rα), were required for PS 1145 induction of tolerance, CD25^+-depleted T cells were used in primary and secondary MLR. […] Similarly, CD4^+ CD25^+ T cells were not required for tolerance induction by PS1145 in secondary cultures.

The test system of test [3] is bm12 mice. The test can be described thus: GVHD lethality after transfer of MLR cells into sublethally irradiated MHC class II disparate recipients. The format is in vivo, mouse. Here is the method: as §1
CD4^+ T cells that were allowed to recover from a vehicle-treated 7 day MLR were uniformly fatal upon adoptive transfer into sublethally irradiated MHC class-II disparate recipients, whereas T cells subjected to ex vivo PS1145 treatment were lethal to only 22% of recipients. Mice were intravenously injected with either 10^5 naïve T cells, 10^5 cells from 7 day control MLR or 10^5 cells from MLR exposed to 6 μM or 10 μM PS1145 for 7 days. […] Thus, the NF-κB pathway is a critical regulator of T cell responses, and provides an ex vivo approach to inducing alloantigen-specific tolerance as a means of preventing GVHD.

Test [4] concerns alloreactive transgenic T cells. The test can be described thus: T cell apoptosis in MLR of alloreactive and non-alloreactive transgenic T cells, Annexin V binding. It is filed as cell-based. Conditions: 10 μM, 1:1 alloreactive and non-alloreactive transgenic T cells.
Description: as §2

The subject of test [5] is TNF-α. Nature of the test: LPS-induced TNF-α expression in mice, ELISA. The format is in vivo, B6 and BALB/c mice. Conditions: 1 μg/kg LPS; 10, 25 or 50 mg/kg oral; 24-72 hours post-treatment; vs controls. The method, then: (§3) B6 and BALB/c mice were given 1 μg/kg of LPS, after which they orally received either control methylcellulose or PS1145 in methylcellulose. Animals were evaluated for expression of the cytokine TNF-α and the chemokine MIP-1α (CCL3) at 24-72 hours post-treatment, as assessed by ELISA.

Test [6] concerns MIP-1α (CCL3). The test can be described thus: LPS-induced MIP-1α (CCL3) expression in mice, ELISA. Conditions: 1 μg/kg LPS; 10, 25 or 50 mg/kg oral; 24-72 hours post-treatment; vs controls. It is filed as in vivo, B6 and BALB/c mice. The method, then:
as §3

Test [7] has as its system B6D2 recipient mice. The test can be described thus: Murine stem cell transplant GVHD model, survival. It is filed as in vivo, mouse. The method, then:
A murine stem cell transplant model was developed in which bone marrow was removed from B6 (H2^b) donors. The marrow was depleted of T cells by incubation with an anti-Thy 1.2 monoclonal antibody coupled to magnetic beads, followed by removal of T cells that bound the antibody using a magnetic column. Thy 1.2^+ T cells were isolated from splenocytes using a similar approach and were added back to the bone marrow. Animals received between 1-5×10^6 T cells and 3×10^6 bone marrow cells after lethal irradiation. The T cell-depleted marrow was transplanted into B6D2H2^bxd recipient mice that had been subjected to a lethal dose of irradiation (8.5 Gy). Recipient mice were divided into six groups, three of which received 1 mg PS1145 starting on day −2, day 0, or day 6 relative to transplant. The other three groups received methylcellulose as a control, starting on day −2, 0, or 6. PS1145 suspended in methylcellulose or methylcellulose alone was administered daily by gavage, through day 14. Mice were evaluated every three days for weight loss, GVHD, and outcome. […] Treatment with PS1145 that started on day 6 was correlated with an earlier death (all mice were dead by about day 12) as compared to treatment that started on day 0 (all mice were dead by about day 28). All mice in the methylcellulose control group were dead by day 20.
In a similar experiment, recipient mice were subjected to 1125 cGy of irradiation and then treated with oral doses of 5 mg/kg methylcellulose or PS1145. In this case, however, all animals in both groups were dead by about day 42 post-transplant (FIG. 12). […] Thus, the use of PS1145 to ameliorate GVHD via an oral route was not effective using very heavy doses of irradiation.
Experiments also were performed in which 5 mg/kg PS1145 or methylcellulose was given intraperitoneally (i.p.) to mice starting on day −2 and ending on day 14 post-transplantation. B6D2 mice that had received 850 cGy of irradiation were injected with 3×10^6 bone marrow cells from B6 donors and 5×10^6 selected B6 T cells.

Test [8] has as its system TNF-α. Nature of the test: TNF-α levels in colon and small intestine after transplant, cytokine bead assay. The format is in vivo, mouse. Conditions: 5 mg/kg i.p. on days −1 and −2, days 3-18, vs untreated. Here is the method: (§4) Expression of TNF-α and MIP-1α (CCL3) was evaluated in mice treated i.p. with PS1145 and subjected to transplantation of T cell-depleted bone marrow with Thy 1-selected splenocytes as a source of T cells. Mice in the test group received 5 mg/kg PS1145 on days −1 and −2 relative to transplant, while control animals were untreated. Animals were sacrificed from days 3-18 for assessment of TNF-α levels in the colon and small intestine and MIP-1α levels in the liver. A cytokine bead assay was used to measure levels of these factors. […] While TNF-α levels in control animals increased from day 3 to day 18, the level was relatively constant in animals exposed to PS1145.

The test system of test [9] is MIP-1α (CCL3). The test can be described thus: MIP-1α levels in liver after transplant, cytokine bead assay. Conditions: 5 mg/kg i.p. on days −1 and −2, days 3-18, vs untreated. The format is in vivo, mouse. The method, then: as §4
The mark [10] stands for this setting: 5 mg/kg i.p. day −2 to day 14, 850 cGy.
The mark [11] stands for this setting: oral 5 mg/kg, 1125 cGy irradiation.

Sequence of NEMO (Q9Y6K9 whole entry, species assumed): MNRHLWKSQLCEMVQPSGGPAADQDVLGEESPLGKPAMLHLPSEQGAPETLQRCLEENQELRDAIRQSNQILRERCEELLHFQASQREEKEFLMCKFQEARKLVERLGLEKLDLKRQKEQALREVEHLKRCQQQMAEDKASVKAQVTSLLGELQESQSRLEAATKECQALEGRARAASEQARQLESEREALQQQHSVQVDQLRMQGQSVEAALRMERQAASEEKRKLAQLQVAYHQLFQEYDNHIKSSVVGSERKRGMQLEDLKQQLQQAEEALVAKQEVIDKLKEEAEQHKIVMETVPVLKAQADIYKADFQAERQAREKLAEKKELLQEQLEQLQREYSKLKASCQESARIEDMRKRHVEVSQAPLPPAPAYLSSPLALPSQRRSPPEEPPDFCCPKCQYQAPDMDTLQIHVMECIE

As for “LDWSFL (Hexapeptide variant of human IKK-beta NBD (SEQ ID NO2) having F in the 5th position.) [NBD mutant]”, in [1], the “Binds to NEMO” value is recorded as “Yes”.
Still for that read-out and setting: the same measure for “ADWSWL (Hexapeptide variant of human IKK-beta NBD (SEQ ID NO2) having A in the 1st position.) [NBD mutant]”: “Yes”; for “LDYSWL (Hexapeptide variant of human IKK-beta NBD (SEQ ID NO2) having Y in the 3rd position.) [NBD mutant]”: “Yes”.
As for `O=C(Nc1cc(Cl)cc2c1[nH]c1cnccc12)c1cccnc1` [PS1145], the “response on re-exposure to allogeneic APC” value in test [2] (10 μM, re-exposed to allogeneic APC) is “remained hyporesponsive”. The “proliferation after secondary stimulus of CD3+ and CD28+ cells” value in test [2] (10 μM, secondary stimulus CD3+ and CD28+ cells) is “comparable to controls”. In addition, in [2] (50 U/mL exogenous IL-2 added), the “alloantigen hyporesponsiveness with exogenous IL-2” value was “reversed”. For the same compound, the “T cell proliferation in response to alloantigen” value in test [2] (MLR treated with 6 μM and 10 μM) is on record as “reduced level of proliferation”. Further, the “hyporesponsiveness after washing of the T cells and re-exposure to alloantigen” value in test [2] (after washing, re-exposure to alloantigen) was “persisted”. For the same compound, the “Long term survival (>90 days)” value in test [3] (10^5 cells i.v. from MLR exposed to 6 μM for 7 days) was “five of eight and 5/8”. For the same compound, the “Long term survival (>90 days)” value in test [3] (10^5 cells i.v. from MLR exposed to 10 μM for 7 days) is “nine of ten and 9/10”. Also, the “recipients to which treated T cells were lethal” value in [3] (T cells treated ex vivo, adoptive transfer) amounted to 22%. Moreover, in [3] (recipients of donor T cells treated ex vivo), the long-term survival rate came out at 78%. For the same compound, in test [4], the “rate of T cell apoptosis” value is recorded as “increased the rate of T cell apoptosis selectively in alloreactive cells”. Further, the TNF-α expression result in test [5] is given as “markedly reduced”. For the same compound, the “MIP-1α (CCL3) expression” value in [6] is “markedly reduced”. In addition, the “day by which all mice were dead” value in [7] (1 mg daily by gavage from day 0 through day 14, 8.5 Gy) is around 28 days. In test [7] (1 mg daily by gavage from day 6 through day 14, 8.5 Gy), the “day by which all mice were dead” value was around 12 days. Moreover, the “mice surviving at least through day 50” value in test [7] (1 mg daily by gavage from day −2 through day 14, 8.5 Gy) is “about 20%”. Moreover, in test [7] (setting [10]), the “Survival Day 30” value is 7/10, the “Survival Day 60” value is 5/10 and the “survival of B6D2 mice” value stood at 50%. In test [7] (setting [11]), the “day post-transplant by which all animals were dead” value is around 42 days and the “survival time compared with methylcellulose group” value is on record as “little difference”. For the same compound, in test [8], the “TNF-α expression in colon and small intestine” value is listed as “significantly decreased”. Besides, the “MIP-1α levels in the liver” value in [9] is recorded as “Analogous results”.
“LNWSWL (Hexapeptide variant of human IKK-beta NBD (SEQ ID NO2) having N in the 2nd position.) [NBD mutant]”: the “Binds to NEMO” value in [1] is on record as “Yes”.
Regarding “LDWSYL (Hexapeptide variant of human IKK-beta NBD (SEQ ID NO2) having Y in the 5th position.) [NBD mutant]”, the “Binds to NEMO” value in [1] is listed as “No”.
Still for that read-out and setting: as for “LDWEWL (Hexapeptide variant of human IKK-beta NBD (SEQ ID NO2) having E in the 4th position.) [NBD mutant]”, the entry is “Yes”; as for “LAWSWL (Hexapeptide variant of human IKK-beta NBD (SEQ ID NO2) having A in the 2nd position.) [NBD mutant]”, “No”.
For the compound “LEWSWL (Hexapeptide variant of human IKK-beta NBD (SEQ ID NO2) having E in the 2nd position.) [NBD mutant]”, in test [1], the “Binds to NEMO” value is on record as “Yes”.
Regarding “LDWSAL (Hexapeptide variant of human IKK-beta NBD (SEQ ID NO2) having A in the 5th position.) [NBD mutant]”, in test [1], the “Binds to NEMO” value was “No”.
For the compound “LDWAWL (Hexapeptide variant of human IKK-beta NBD (SEQ ID NO2) having A in the 4th position.) [NBD mutant]”, the “Binds to NEMO” value in test [1] was “Yes”.
Still for that read-out and setting: the same measure for “LDASAL (Hexapeptide variant of human IKK-beta NBD (SEQ ID NO2) having A in the 3rd and 5th positions.) [NBD mutant]”: “No”; for “LDASWL (Hexapeptide variant of human IKK-beta NBD (SEQ ID NO2) having A in the 3rd position.) [NBD mutant]”: “No”.
On the same count and under the same terms, the same measure for “LDWSWA (Hexapeptide variant of human IKK-beta NBD (SEQ ID NO2) having A in the 6th position.) [NBD mutant]”: “Yes”.
As for LDSWSL (listed as Homo sapiens), the “Binds to NEMO” value in test [1] is given as “Yes”.
For the compound “LDFSWL (Hexapeptide variant of human IKK-beta NBD (SEQ ID NO2) having F in the 3rd position.) [NBD mutant]”, the “Binds to NEMO” value in test [1] is given as “Yes”.
